Experiment [1] concerns Spry4. The experiment is described as follows: Zebrafish mRNA microinjection, rescue of sef expression, spry4. It is filed as in vivo. The following applies: 5 μM BCI, shield stage. As for the experimental part:
(§1) dusp6 and XFD mRNA for microinjection studies were generated as previously described (Tsang, M. et al. Development 131, 2769-79 (2004)). Both Dusp5 and Spry4 ORFs were amplified by RT-PCR from 24 hpf zebrafish with the following primers: […]
(§2) Amplified PCR products were subcloned into pCS2+, sequenced verified and mRNAs were synthesized as described previously. Embryos were injected with 500 pg mRNA at the 1-2 cell stage, treated with 5 μM BCI at the 1000-cell stage and fixed at shield stage for in situ hybridization.
(§3) In situ hybridization experiments were carried out as described previously (Kudoh, T. et al. Genome Res 11, 1979-87 (2001)). The probes eng3, krox20, sef, dusp6, gata4, nkx2.5, cmlc2, vmhc, scl, etsrp and hand2 were generated with a RNA labeling kit (Roche) (Tsang, M. et al. Development 131, 2769-79 (2004); Chen, J. N. et al. Development 122, 3809-16 (1996); Ekker, M., et al. Development 116, 1001-10 (1992); Liao, E. C. et al. Genes Dev 12, 621-6 (1998); Oxtoby, E. et al. Nucleic Acids Res 21, 1087-95 (1993); Pham, V. N. et al. Dev Biol 303, 772-83 (2007); Tsang, M., et al. Nat Cell Biol 4, 165-9 (2002); Yelon, D., et al. Dev Biol 214, 23-37 (1999); and Yelon, D. et al. Development 127, 2573-82 (2000)). The double fluorescent in situ hybridization protocol was described by Schoenbeck et al. (Dev Cell 13, 254-67 (2007)). […]

The target in experiment [2] is T1, Dusp6 (Danio rerio, UniProt Q7T2L8).
T1 construct: expressed in transfected cells; host or cells: zebrafish embryos, 500 pg mRNA injected at the 1-2 cell stage
T1 sequence (Q7T2L8 1-382): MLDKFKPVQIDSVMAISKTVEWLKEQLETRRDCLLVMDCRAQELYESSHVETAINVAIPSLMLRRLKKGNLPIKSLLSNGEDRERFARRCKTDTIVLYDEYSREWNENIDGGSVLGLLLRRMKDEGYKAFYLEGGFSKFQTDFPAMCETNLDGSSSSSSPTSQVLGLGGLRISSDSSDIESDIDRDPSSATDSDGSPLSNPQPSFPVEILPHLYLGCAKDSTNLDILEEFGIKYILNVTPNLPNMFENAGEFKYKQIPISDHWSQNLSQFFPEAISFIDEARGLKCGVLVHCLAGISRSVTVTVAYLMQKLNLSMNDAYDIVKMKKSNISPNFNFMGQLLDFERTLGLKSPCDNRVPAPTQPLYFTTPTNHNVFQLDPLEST
The experiment is described as follows: Zebrafish mRNA microinjection, rescue of sef expression, dusp6. It is filed as in vivo. As to conditions: 5 μM BCI, shield stage. As for the experimental part:
as §1, §2, §3

The test system of experiment [3] is FGF signaling (Tg(Dusp6:dsEGFP) reporter). Description: Dose response of GFP expression in Tg(Dusp6:dsEGFP) embryos, automated imaging. It counts as in vivo, zebrafish. The following applies: Danio rerio; treated at 24 hpf, 6 hours; read-out: EC50, GFP expression in transgenic embryos. As for the experimental part:
We tested a series of structurally related analogs of BCI in an in vivo assay. As described in Molina et al. (Nature Chemical Biology, 2009), Tg(Dusp6:dsEGFP) embryos were treated at 24 hours post fertilization with increasing doses of compounds. After 6 hours treatment, embryos were imaged by the IXU ImageXpress (Molecular Devices), and images were processed by Definiens Software. The software identified bright head structures and measured fluorescence.
Under similar conditions, BCI-related analogs were tested and EC50 values measured.

The target of experiment [4] is T2, PTP1B (Homo sapiens, UniProt P18031).
T2 sequence (P18031 1-435): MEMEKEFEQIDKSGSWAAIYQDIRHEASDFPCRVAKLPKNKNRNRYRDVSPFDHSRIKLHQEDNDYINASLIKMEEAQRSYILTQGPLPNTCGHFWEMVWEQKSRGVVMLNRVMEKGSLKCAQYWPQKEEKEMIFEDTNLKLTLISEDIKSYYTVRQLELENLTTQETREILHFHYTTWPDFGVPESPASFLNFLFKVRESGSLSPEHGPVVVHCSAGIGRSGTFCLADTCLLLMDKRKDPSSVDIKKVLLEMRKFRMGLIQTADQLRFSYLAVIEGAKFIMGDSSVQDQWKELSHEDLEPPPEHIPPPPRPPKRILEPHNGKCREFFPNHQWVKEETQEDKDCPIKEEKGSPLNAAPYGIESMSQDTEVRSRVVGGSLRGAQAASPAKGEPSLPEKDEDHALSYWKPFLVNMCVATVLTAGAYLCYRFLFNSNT
Description: OMFP phosphatase assay, PTP1B. It counts as biochemical. The following applies: n=3, OMFP substrate, 15.2 nM-300 μM; read-out: mean in vitro values, PTP1B. As for the experimental part: Enzyme activities in the presence or absence of BCI were measured using the artificial substrate […] at concentrations equal to the Km of each enzyme (Cdc25B, PTP1B & Dusp3/VHR) and at optimal pH for individual enzyme activity in a 96-well microtiter plate assay based on previously described methods by Lazo et al. (J Med Chem 44, 4042-9 (2001) and Lazo, J. S. et al. Bioorg Med Chem 14, 5643-50 (2006)). Briefly, the standard assay conditions contained 0.02 mg/ml OMFP in assay buffer (30 mM Tris-HCl (pH8.0), 75 mM NaCl, 1 mM EDTA, 0.33% BSA and 1 mM DTT). Fluorescence emission was measured after a sixty-minute incubation period at ambient temperature using a multiwell plate reader (SpectraMax m5, […]; excitation 485 nm, emission 525 nm). Sodium orthovanadate (100 μM) was used as a positive control for full phosphatase inhibition. IC50 concentrations were determined from three experiments using 10 concentrations of BCI ranging from 300 μM to 15.2 nM and GraphPad Prism 5.0 software.

Experiment [5] has as its system Dusp5. Description: Zebrafish mRNA microinjection, rescue of sef expression, dusp5. It counts as in vivo. As to conditions: 5 μM BCI, shield stage. As for the experimental part: as §1, §2, §3
For experiment [6], the system named is FGF target genes sef and spry4. The experiment is described as follows: Semi-quantitative RT-PCR of FGF target genes in treated embryos. It counts as in vivo, zebrafish. As to conditions: 24 hpf, 6 hours, 10 μM and 20 μM, n=3. As for the experimental part: Zebrafish embryos were treated at 24 hpf for 6 hours with BCI at 10 μM and 20 μM followed by total RNA extraction with Trizol (Invitrogen). cDNA synthesis with SuperScript II Reverse Transcriptase (Invitrogen) was performed as described by manufacture's protocol and by Tsang et al. 17. For PCR reaction, HotMaster Taq (Eppendorf) was used with the following primers: […]
Cycle conditions were: 94° C. 30 sec, 55° C. 45 sec, 72° C. 40 sec, for 25 cycles. PCR products were resolved on 3% agarose gels.

The term EC50 denotes the concentration giving half of the maximal effect. Take `O=C1/C(=C/c2ccccc2)C(NC2CCCCC2)c2ccccc21` (stereo not drawn) [Compound 3, (E)-2-benzylidene-3-(cyclohexylamino)-2,3-dihydro-1H-inden-1-one]: the “reversal of effects of spry4 mRNA on sef expression” value in experiment [1] was “did not reverse”. The “sef expression in dusp6-injected embryos” value in experiment [2] is recorded as “rescued sef expression to control levels or higher”. Besides, in experiment [3], the EC50 was 11.4 µM. The IC50 in experiment [4] is more than 300 µM. For the same compound, the “reversal of phenotype caused by Dusp5 over-expression” value in experiment [5] is “little or no effect”. Moreover, the “expression of sef and spry4” value in experiment [6] was “increase”.

Source of the values: US9127016B2, “Small molecule inhibitors of Dusp6 and uses therefor” (University of Pittsburgh—Of the Commonwealth System of …, priority 2009, dated 2015).
